± gives the uncertainty stated by the source.
Experiment: xn = mol fraction of the nth substance listed

CC(C)OCCO + CO
298.15 K, 101.33 kPa
Settings	viscosity [mPa·s]
x1 = 0.012	0.569 ± 0.005
x1 = 0.0276	0.602 ± 0.005
x1 = 0.05	0.637 ± 0.005
x1 = 0.0732	0.684 ± 0.005
x1 = 0.1063	0.749 ± 0.005
x1 = 0.1319	0.795 ± 0.006
x1 = 0.1558	0.842 ± 0.006
x1 = 0.1871	0.897 ± 0.006
x1 = 0.2119	0.946 ± 0.006
x1 = 0.2575	1.036 ± 0.007
x1 = 0.2683	1.056 ± 0.007
x1 = 0.3161	1.145 ± 0.01
x1 = 0.3643	1.235 ± 0.011
x1 = 0.412	1.324 ± 0.012
x1 = 0.4685	1.415 ± 0.013
x1 = 0.5152	1.485 ± 0.014
x1 = 0.5447	1.529 ± 0.015
x1 = 0.6149	1.624 ± 0.016
x1 = 0.6869	1.719 ± 0.018
x1 = 0.7416	1.789 ± 0.019
x1 = 0.7775	1.832 ± 0.02
x1 = 0.8335	1.912 ± 0.022
x1 = 0.8955	1.975 ± 0.023
x1 = 0.9189	2.003 ± 0.024
x1 = 0.9415	2.032 ± 0.025
x1 = 0.9701	2.064 ± 0.025

CCOS(=O)(=O)[O-].CC[N+](CC)=C(N(C)C)N(C)C + CO
viscosity [mPa·s], 100 kPa
Settings	x1 = 0.1	x1 = 0.1991	x1 = 0.298	x1 = 0.3949	x1 = 0.4982	x1 = 0.5999	x1 = 0.6953	x1 = 0.7999	x1 = 0.9002
293.15 K	1.785 ± 0.015	4.501 ± 0.037	9.381 ± 0.078	18.38 ± 0.15	32.98 ± 0.29	53.59 ± 0.41	80.2 ± 1.4	115.6 ± 3.4	153.4 ± 6
298.15 K	1.634 ± 0.013	4.072 ± 0.033	8.2 ± 0.067	15.58 ± 0.13	27.24 ± 0.23	42.8 ± 0.4	62.36 ± 0.68	87.46 ± 1.8	112.3 ± 3.2
303.15 K	1.504 ± 0.012	3.661 ± 0.03	7.163 ± 0.059	13.38 ± 0.11	22.82 ± 0.19	34.85 ± 0.31	49.55 ± 0.5	67.85 ± 0.89	86.71 ± 1.8
308.15 K	1.389 ± 0.011	3.307 ± 0.027	6.417 ± 0.053	11.63 ± 0.1	19.37 ± 0.16	28.79 ± 0.25	40.16 ± 0.38	53.89 ± 0.44	67.59 ± 0.89
313.15 K	1.287 ± 0.011	3 ± 0.024	5.724 ± 0.047	10.18 ± 0.08	16.65 ± 0.14	24.17 ± 0.21	33.08 ± 0.3	43.49 ± 0.43	53.73 ± 0.44
318.15 K	1.195 ± 0.01	2.734 ± 0.022	4.994 ± 0.041	8.991 ± 0.074	14.45 ± 0.12	20.55 ± 0.17	27.69 ± 0.24	35.64 ± 0.33	43.24 ± 0.43
323.15 K	1.113 ± 0.009	2.5 ± 0.02	4.58 ± 0.037	7.999 ± 0.066	12.64 ± 0.11	17.68 ± 0.15	23.46 ± 0.2	29.74 ± 0.27	35.49 ± 0.34

COC(=O)c1ccccc1 + CO
viscosity [mPa·s], 101.33 kPa
Settings	x1 = 0.0499	x1 = 0.0999	x1 = 0.2	x1 = 0.3001	x1 = 0.4001	x1 = 0.4999	x1 = 0.5999	x1 = 0.65	x1 = 0.8001	x1 = 0.9001
293.15 K	0.653 ± 0.039	0.721 ± 0.044	0.86 ± 0.052	0.997 ± 0.06	1.133 ± 0.068	1.263 ± 0.076	1.395 ± 0.084	1.461 ± 0.088	1.673 ± 0.1	1.834 ± 0.11
298.15 K	0.608 ± 0.037	0.67 ± 0.04	0.796 ± 0.048	0.918 ± 0.055	1.041 ± 0.063	1.156 ± 0.07	1.273 ± 0.077	1.331 ± 0.08	1.518 ± 0.092	1.66 ± 0.1
303.15 K	0.568 ± 0.034	0.625 ± 0.038	0.738 ± 0.045	0.849 ± 0.051	0.958 ± 0.058	1.062 ± 0.064	1.167 ± 0.07	1.22 ± 0.074	1.387 ± 0.084	1.511 ± 0.091
308.15 K	0.531 ± 0.032	0.584 ± 0.035	0.686 ± 0.041	0.786 ± 0.047	0.886 ± 0.053	0.98 ± 0.059	1.075 ± 0.065	1.122 ± 0.068	1.272 ± 0.077	1.385 ± 0.084
313.15 K	0.499 ± 0.03	0.547 ± 0.033	0.64 ± 0.039	0.732 ± 0.044	0.822 ± 0.05	0.907 ± 0.055	0.993 ± 0.06	1.036 ± 0.063	1.173 ± 0.071	1.275 ± 0.077

CCOCCOCCOCC + COC(=O)OC
viscosity [mPa·s], 101.33 kPa
Settings	298.15 K	308.15 K	318.15 K
x1 = 0.0109	0.604 ± 0.008	0.532 ± 0.007	0.48 ± 0.007
x1 = 0.0541	0.641 ± 0.009	0.563 ± 0.008	0.502 ± 0.007
x1 = 0.0935	0.677 ± 0.009	0.593 ± 0.008	0.523 ± 0.007
x1 = 0.1383	0.718 ± 0.009	0.624 ± 0.008	0.546 ± 0.008
x1 = 0.1877	0.76 ± 0.01	0.654 ± 0.009	0.571 ± 0.008
x1 = 0.2422	0.808 ± 0.01	0.689 ± 0.009	0.604 ± 0.008
x1 = 0.3409	0.886 ± 0.011	0.752 ± 0.01	0.651 ± 0.009
x1 = 0.4435	0.959 ± 0.012	0.811 ± 0.01	0.697 ± 0.009
x1 = 0.5274	1.021 ± 0.013	0.855 ± 0.011	0.727 ± 0.01
x1 = 0.6085	1.072 ± 0.013	0.894 ± 0.011	0.761 ± 0.01
x1 = 0.7154	1.136 ± 0.014	0.942 ± 0.012	0.798 ± 0.01
x1 = 0.8183	1.189 ± 0.015	0.986 ± 0.013	0.831 ± 0.011
x1 = 0.9068	1.229 ± 0.015	1.019 ± 0.013	0.857 ± 0.011
x1 = 0.9643	1.258 ± 0.016	1.037 ± 0.013	0.872 ± 0.011

c1ccc2c(c1)CCCC2 + COC(C)(C)C
303.15 K, 101 kPa
Settings	viscosity [mPa·s]
x2 = 0.1289	1.534
x2 = 0.1851	1.432
x2 = 0.2839	1.253
x2 = 0.3506	1.136
x2 = 0.4458	0.983
x2 = 0.5017	0.903
x2 = 0.6257	0.737
x2 = 0.7392	0.606
x2 = 0.8539	0.486
x2 = 0.9246	0.37

COC(=O)c1ccccc1 + COCCO
viscosity [mPa·s], 101 kPa
Settings	x2 = 0.0991	x2 = 0.2001	x2 = 0.3023	x2 = 0.3992	x2 = 0.4989	x2 = 0.5981	x2 = 0.699	x2 = 0.7991	x2 = 0.8983
298.15 K	1.735 ± 0.14	1.689 ± 0.14	1.686 ± 0.14	1.675 ± 0.14	1.646 ± 0.14	1.675 ± 0.14	1.668 ± 0.14	1.699 ± 0.14	1.693 ± 0.14
303.15 K	1.571 ± 0.13	1.523 ± 0.13	1.524 ± 0.13	1.511 ± 0.13	1.478 ± 0.12	1.508 ± 0.12	1.5 ± 0.12	1.525 ± 0.13	1.522 ± 0.13
308.15 K	1.427 ± 0.12	1.385 ± 0.12	1.378 ± 0.12	1.366 ± 0.11	1.34 ± 0.11	1.362 ± 0.11	1.356 ± 0.11	1.375 ± 0.11	1.372 ± 0.11

CCOC(=O)CCl + COc1ccccc1
viscosity [mPa·s], 101.3 kPa
Settings	x1 = 0.1012	x1 = 0.2027	x1 = 0.3	x1 = 0.3936	x1 = 0.4982	x1 = 0.6022	x1 = 0.6954	x1 = 0.7934	x1 = 0.8919
298.15 K	0.983 ± 0.008	0.987 ± 0.008	0.989 ± 0.008	0.996 ± 0.008	1.004 ± 0.009	1.019 ± 0.009	1.033 ± 0.009	1.049 ± 0.009	1.072 ± 0.009
303.15 K	0.915 ± 0.008	0.916 ± 0.008	0.918 ± 0.008	0.925 ± 0.008	0.932 ± 0.008	0.945 ± 0.008	0.958 ± 0.008	0.975 ± 0.009	0.993 ± 0.009
308.15 K	0.847 ± 0.007	0.847 ± 0.008	0.848 ± 0.008	0.853 ± 0.008	0.861 ± 0.008	0.871 ± 0.008	0.884 ± 0.008	0.901 ± 0.008	0.915 ± 0.009
